The values that follow come from patent publication US20260297081A1, “COMPOUNDS AND METHODS OF TREATING CANCERS” (Cullgen Inc., priority 2023, published 2026).

As usually defined, the IC50 is the point on the concentration scale where inhibition reaches its midpoint.

Where only a bound is given, the exact number is not on record here.

Format in all cases: cell-based
For one assay, the target named is CDK4 (Homo sapiens, UniProt P11802+Q16531). As to the kind of experiment: HiBiT detection of HiBiT-tagged CDK4 protein level in MCF7 cells, 16 hours (Table 8). Particulars: MCF7 cells stably expressing HiBiT tagged target proteins; for activity at 0.01 µM: 10 nM, read-out: % CDK4 Relative Level (10 nM); for activity at 0.1 µM: 100 nM, read-out: % CDK4 Relative Level (100 nM). Also on record: expressed in transfected cells; host or cells: MCF7. On the procedure:
HiBiT detection system quantitatively measures total amounts of HiBiT-tagged proteins using a luminescent based method. MCF7 cells stably expressing HiBiT tagged target proteins were treated with heterobifunctional compounds at indicated concentrations for 16 hours, then lysed with Nano-Glo HiBiT Lytic detection reagents.
Background: With HiBiT, luminescence reflects the tagged protein that the partner subunit can reach.

For another assay, the system named is MCF7 cells. Briefly: Anti-proliferation (viability) of MCF7 cells (Table 7, FIG. 2B). Particulars: Homo sapiens, MCF7, MCF7 cells, 3-6 days, 10-point serial dilution; read-out: GI IC50 in MCF-7.
A further assay has as its system Calu-1 cells. Briefly: Anti-proliferation (viability) of NSCLC Calu-1 cells, 3 days (Table 7, FIG. 2B). The following applies: Homo sapiens, 72 h; Calu-1 cells, 3 days, 10-point serial dilution; read-out: GI IC50 in Calu-1. The gist of the method:
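Heterobifunctional compounds are tested in 10-point serial dilutions on Calu-1 (3-day exposure) and T47D (6-day exposure) cells.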

CDK4, sequence (P11802 whole entry): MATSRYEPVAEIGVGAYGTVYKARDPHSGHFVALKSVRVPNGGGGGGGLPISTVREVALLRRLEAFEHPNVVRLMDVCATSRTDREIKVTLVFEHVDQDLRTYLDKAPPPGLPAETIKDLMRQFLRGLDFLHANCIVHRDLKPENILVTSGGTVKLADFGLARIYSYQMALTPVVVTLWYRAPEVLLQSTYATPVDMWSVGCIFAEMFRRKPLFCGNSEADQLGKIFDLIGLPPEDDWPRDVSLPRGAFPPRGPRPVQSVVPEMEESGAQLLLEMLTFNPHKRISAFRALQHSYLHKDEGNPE
CDK4, sequence (P24385 whole entry partner): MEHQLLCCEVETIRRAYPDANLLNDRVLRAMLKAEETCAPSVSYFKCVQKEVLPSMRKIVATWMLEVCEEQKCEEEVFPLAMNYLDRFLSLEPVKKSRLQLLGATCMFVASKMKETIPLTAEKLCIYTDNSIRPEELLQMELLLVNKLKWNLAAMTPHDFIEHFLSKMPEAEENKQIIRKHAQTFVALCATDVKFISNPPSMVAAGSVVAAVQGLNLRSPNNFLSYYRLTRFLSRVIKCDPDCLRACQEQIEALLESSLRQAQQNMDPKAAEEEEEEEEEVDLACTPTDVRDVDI
CDK4, sequence (Q16531 2-1140 limits assumed): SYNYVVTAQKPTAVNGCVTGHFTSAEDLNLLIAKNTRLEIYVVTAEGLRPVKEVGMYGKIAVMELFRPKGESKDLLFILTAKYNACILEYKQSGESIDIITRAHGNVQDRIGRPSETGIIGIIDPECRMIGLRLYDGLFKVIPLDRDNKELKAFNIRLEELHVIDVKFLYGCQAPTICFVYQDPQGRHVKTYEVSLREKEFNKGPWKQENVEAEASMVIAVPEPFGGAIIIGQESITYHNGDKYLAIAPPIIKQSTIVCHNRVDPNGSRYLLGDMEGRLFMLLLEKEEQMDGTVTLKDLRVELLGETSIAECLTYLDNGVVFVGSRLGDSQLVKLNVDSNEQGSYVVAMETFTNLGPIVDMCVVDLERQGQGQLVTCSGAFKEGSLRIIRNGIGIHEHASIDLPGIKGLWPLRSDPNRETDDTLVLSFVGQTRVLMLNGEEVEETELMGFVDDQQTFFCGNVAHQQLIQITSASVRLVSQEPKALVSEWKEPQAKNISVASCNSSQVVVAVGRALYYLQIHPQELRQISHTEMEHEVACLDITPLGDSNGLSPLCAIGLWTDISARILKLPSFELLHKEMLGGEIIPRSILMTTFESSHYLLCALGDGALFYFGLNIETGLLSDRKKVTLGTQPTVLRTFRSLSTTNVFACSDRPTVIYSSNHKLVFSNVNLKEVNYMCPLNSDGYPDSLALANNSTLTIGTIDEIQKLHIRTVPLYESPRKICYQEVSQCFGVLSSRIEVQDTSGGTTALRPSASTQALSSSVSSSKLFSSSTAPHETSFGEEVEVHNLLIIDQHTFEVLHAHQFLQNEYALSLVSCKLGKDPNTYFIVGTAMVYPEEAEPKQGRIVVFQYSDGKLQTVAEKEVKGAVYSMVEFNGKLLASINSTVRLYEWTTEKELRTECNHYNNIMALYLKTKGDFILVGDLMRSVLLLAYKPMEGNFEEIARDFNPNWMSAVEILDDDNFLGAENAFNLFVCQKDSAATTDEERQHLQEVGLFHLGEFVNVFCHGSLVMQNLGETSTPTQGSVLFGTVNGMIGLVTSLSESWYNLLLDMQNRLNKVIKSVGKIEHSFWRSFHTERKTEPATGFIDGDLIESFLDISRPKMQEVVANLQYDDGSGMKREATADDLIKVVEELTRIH

For the molecule `CC(=O)c1c(C)c2cnc(Nc3ccc(CN4CCN(CC(=O)NC5CC6(C5)CC(Nc5nc(NC(C)C)ccc5C(=O)Nc5ccc(N(C)C)nn5)C6)CC4)cn3)nc2n(C2CCCC2)c1=O` (stereo not shown) [CPD-472, 2-((6-(2-(4-((6-((6-acetyl-8-cyclopentyl-5-methyl-7-oxo-7,8-dihydropyrido[2,3-d]pyrimidin-2-yl)amino)pyridin-3-yl)methyl)piperazin-1-yl)acetamido)spiro[3.3]heptan-2-yl)amino)-N-(6-(dimethylamino)pyridazin-3-yl)-6-(isopropylamino)nicotinamide], at CDK4, the activity at 0.01 µM is 55 to 85% and the activity at 0.1 µM is at most 55%. Moreover, in the assay with MCF7 cells, the IC50 is under 50 nM. Also, in the assay on Calu-1 cells, the IC50 is at most 10 nM.

As to `CC(=O)c1c(C)c2cnc(Nc3ccc(CN4CCN(CC(=O)NC5CCC(Nc6nc(NC(C)C)ccc6C(=O)Nc6ccc(N(C)C)nn6)CC5)CC4)cn3)nc2n(C2CCCC2)c1=O` (stereo not shown) [CPD-473, 2-((4-(2-(4-((6-((6-acetyl-8-cyclopentyl-5-methyl-7-oxo-7,8-dihydropyrido[2,3-d]pyrimidin-2-yl)amino)pyridin-3-yl)methyl)piperazin-1-yl)acetamido)cyclohexyl)amino)-N-(6-(dimethylamino)pyridazin-3-yl)-6-(isopropylamino)nicotinamide], the activity at 0.01 µM on CDK4 is over 85%. Also, at CDK4, the activity at 0.1 µM was over 85%. The IC50 with MCF7 cells was under 50 nM; in the assay with Calu-1 cells it was at most 10 nM.

In the case of `CC(=O)c1c(C)c2cnc(Nc3ccc(N4CCN(C5CCN(C(=O)[C@H]6CC[C@H](Nc7nc(NC(C)C)ccc7C(=O)Nc7cc(C)n(C)n7)CC6)C5)CC4)cn3)nc2n(C2CCCC2)c1=O` (stereo partly shown) [CPD-478, 2-((4-(3-(4-(6-((6-acetyl-8-cyclopentyl-5-methyl-7-oxo-7,8-dihydropyrido[2,3-d]pyrimidin-2-yl)amino)pyridin-3-yl)piperazin-1-yl)pyrrolidine-1-carbonyl)cyclohexyl)amino)-N-(1,5-dimethyl-1H-pyrazol-3-yl)-6-(isopropylamino)nicotinamide], on CDK4, the activity at 0.01 µM is over 85%. In addition, the activity at 0.1 µM on CDK4 fell in the range of 55 to 85%. For the same molecule, the IC50 with MCF7 cells is under 50 nM; in the assay on Calu-1 cells it was at most 10 nM.

As to `CC(=O)c1c(C)c2cnc(Nc3ccc(N4CCN(C5CCN(C(=O)[C@H]6CC[C@H](Nc7nc(NC(C)C)ccc7C(=O)Nc7cn(C)c(C8CC8)n7)CC6)C5)CC4)cn3)nc2n(C2CCCC2)c1=O` (stereo partly shown) [CPD-481, 2-((4-(3-(4-(6-((6-acetyl-8-cyclopentyl-5-methyl-7-oxo-7,8-dihydropyrido[2,3-d]pyrimidin-2-yl)amino)pyridin-3-yl)piperazin-1-yl)pyrrolidine-1-carbonyl)cyclohexyl)amino)-N-(2-cyclopropyl-1-methyl-1H-imidazol-4-yl)-6-(isopropylamino)nicotinamide], the activity at 0.01 µM on CDK4 is over 85%. Also, on CDK4, the activity at 0.1 µM is over 85%. The IC50 was under 50 nM with MCF7 cells and at most 10 nM in the assay on Calu-1 cells.

Consider `CC(=O)c1c(C)c2cnc(Nc3ccc(CN4CCN(CC(=O)N5CCC6(CCC(Nc7nc(NC(C)C)ccc7C(=O)Nc7ccc(N(C)C)nn7)C6)C5)CC4)cn3)nc2n(C2CCCC2)c1=O` (stereo not shown) [CPD-487, 2-((2-(2-(4-((6-((6-acetyl-8-cyclopentyl-5-methyl-7-oxo-7,8-dihydropyrido[2,3-d]pyrimidin-2-yl)amino)pyridin-3-yl)methyl)piperazin-1-yl)acetyl)-2-azaspiro[4.4]nonan-7-yl)amino)-N-(6-(dimethylamino)pyridazin-3-yl)-6-(isopropylamino)nicotinamide], for which, at CDK4, the activity at 0.01 µM fell in the range of 55 to 85% and the activity at 0.1 µM was in the range of 55 to 85%. Besides, the IC50 with MCF7 cells was under 50 nM. Besides, the IC50 with Calu-1 cells was at most 10 nM.

In the case of `[2H]C([2H])([2H])Nc1ccc(C(=O)Nc2ccc(N(C)C)nn2)c(NC2CCN(CC(=O)N3CCN(Cc4ccc(Nc5ncc6c(C)c(C(C)=O)c(=O)n(C7CCCC7)c6n5)nc4)CC3)CC2)n1` [CPD-491], the activity at 0.01 µM on CDK4 is over 85%. On CDK4, the activity at 0.1 µM is over 85%. Besides, the IC50 is under 50 nM in the assay on MCF7 cells and at most 10 nM with Calu-1 cells.

Regarding `CCc1ccc(C(=O)Nc2ccc(N(C)C)nn2)c(N[C@H]2CC[C@H](C(=O)N3CCC(N4CCN(c5ccc(Nc6ncc7c(C)c(C(C)=O)c(=O)n(C8CCCC8)c7n6)nc5)CC4)C3)CC2)n1` (stereo partly shown) [CPD-492, 2-((4-(3-(4-(6-((6-acetyl-8-cyclopentyl-5-methyl-7-oxo-7,8-dihydropyrido[2,3-d]pyrimidin-2-yl)amino)pyridin-3-yl)piperazin-1-yl)pyrrolidine-1-carbonyl)cyclohexyl)amino)-N-(6-(dimethylamino)pyridazin-3-yl)-6-ethylnicotinamide], on CDK4, the activity at 0.01 µM is over 85% and the activity at 0.1 µM is over 85%. Further, the IC50 in the assay with MCF7 cells was under 50 nM. For the same molecule, the half-maximal inhibitory concentration (IC50) with Calu-1 cells is at most 10 nM.

On to `CC(=O)c1c(C)c2cnc(Nc3ccc(N4CCN(C5CCN(C(=O)[C@H]6CC[C@H](Nc7nc(C(C)C)ccc7C(=O)Nc7ccc(N(C)C)nn7)CC6)C5)CC4)cn3)nc2n(C2CCCC2)c1=O` (stereo partly drawn) [CPD-499, 2-((trans-4-(3-(4-(6-((6-acetyl-8-cyclopentyl-5-methyl-7-oxo-7,8-dihydropyrido[2,3-d]pyrimidin-2-yl)amino)pyridin-3-yl)piperazin-1-yl)pyrrolidine-1-carbonyl)cyclohexyl)amino)-N-(6-(dimethylamino)pyridazin-3-yl)-6-isopropylnicotinamide], for which, at CDK4, the activity at 0.01 µM is over 85% and the activity at 0.1 µM is 55 to 85%. In addition, the IC50 with MCF7 cells was under 50 nM. Also, in the assay with Calu-1 cells, the IC50 is at most 10 nM.

Turning to `CC(=O)c1c(C)c2cnc(Nc3ccc(CN4CCN(CC(=O)NC5CCC(Nc6nc(NC(C)C)ccc6C(=O)Nc6ccc(N(C)C)nn6)C5)CC4)cn3)nc2n(C2CCCC2)c1=O` (stereo not shown) [CPD-501, 2-((3-(2-(4-((6-((6-acetyl-8-cyclopentyl-5-methyl-7-oxo-7,8-dihydropyrido[2,3-d]pyrimidin-2-yl)amino)pyridin-3-yl)methyl)piperazin-1-yl)acetamido)cyclopentyl)amino)-N-(6-(dimethylamino)pyridazin-3-yl)-6-(isopropylamino)nicotinamide], on CDK4, the activity at 0.01 µM was over 85% and the activity at 0.1 µM is over 85%. In the assay on MCF7 cells, the IC50 is under 50 nM. Also, in the assay with Calu-1 cells, the IC50 was at most 10 nM.

On to `CC(=O)c1c(C)c2cnc(Nc3ccc(N4CCN(CCC(=O)NC56CC(Nc7nc(NC(C)C)ccc7C(=O)Nc7ccc(N(C)C)nn7)(C5)C6)CC4)cn3)nc2n(C2CCCC2)c1=O` [CPD-503, 2-((3-(3-(4-(6-((6-acetyl-8-cyclopentyl-5-methyl-7-oxo-7,8-dihydropyrido[2,3-d]pyrimidin-2-yl)amino)pyridin-3-yl)piperazin-1-yl)propanamido)bicyclo[1.1.1]pentan-1-yl)amino)-N-(6-(dimethylamino)pyridazin-3-yl)-6-(isopropylamino)nicotinamide], for which the activity at 0.01 µM on CDK4 is 55 to 85%. In addition, the activity at 0.1 µM at CDK4 lay in the range of 55 to 85%. The values for the IC50 in the assay on MCF7 cells and in the assay with Calu-1 cells were under 50 nM and at most 10 nM, respectively.
